Measurements: patent US20090104126A1, “Sulfamate Compounds and Uses Thereof” (Solvay Pharmaceuticals GmbH, priority 2007, published 2009)
Read-outs that look alike come from different tables or passages of the source. Marks after values point to notes of the source that are not given here.

Key:
[1] = tested on: STZ-diabetic male Sprague Dawley rats; assay: Diabetic-induced neuropathic pain: warm plate (38° C.) test (warm allodynia) in STZ rats; format: in vivo, rat; settings: day 10
[2] = tested on: male C57BI/6 mice; assay: Acute in vivo food intake test in mice; settings: high caloric diet, 50 mg/kg/day oral gavage twice daily for 3 days, day 3
Description: The studies were carried out in male C57BI/6 mice (n=12 per group). The mice were kept on an inverted 12/12 h light/dark cycle (lights on 22:00). They were allowed food (high caloric diet) and water ad libitum. Food intake and water consumption was measured daily. The test compound of general Formula I was suspended in 1% methyl hydroxyethyl cellulose in water and 0.1% (v/v) of poloxamer 188 and administered by oral gavage at a dose of 50 mg/kg/day twice daily for 3 days. One half of the dose was administered at 8.00-10.00 h; the remaining half of the dose was administered between 14.00-15.00 h.

[3] = molecular target: T1, human carbonic anhydrase isoenzyme I from erythrocytes (Homo sapiens, UniProt P00915); assay: In vitro inhibition of human carbonic anhydrase isoenzyme I (dansylamide fluorescence); format: biochemical
T1 construct: human carbonic anhydrase isoenzyme I from erythrocytes (Sigma-Aldrich); purchased Sigma-Aldrich; host or cells: human erythrocytes
T1 sequence (P00915 whole entry): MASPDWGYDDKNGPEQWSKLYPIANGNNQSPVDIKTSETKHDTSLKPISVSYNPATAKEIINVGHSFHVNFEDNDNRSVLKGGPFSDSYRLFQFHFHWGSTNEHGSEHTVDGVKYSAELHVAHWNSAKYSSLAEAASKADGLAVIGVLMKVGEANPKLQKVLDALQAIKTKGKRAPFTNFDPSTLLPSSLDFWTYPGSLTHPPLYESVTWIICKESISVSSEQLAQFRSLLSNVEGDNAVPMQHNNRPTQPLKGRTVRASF
Description: (§1) The test compounds of general Formula I in 96 well microplates were diluted with aqua bidest by using an automatic pipettor (CyBiWell®). From the different dilution plates, aliquots of 20 μl were transferred to the 96 well black assay plates with a pipetting station (Tecan Genesis®). In a second step, 148 μl of potassium phosphate buffer (20 mM, pH 7.4) was added, and as a third step, 20 μl of enzyme solution (1 μM human carbonic anhydrase isoenzyme I from erythrocytes (Sigma-Aldrich) or human carbonic anhydrase II from erythrocytes (Sigma Aldrich), or recombinant human carbonic anhydrase isoenzyme VB (R&D Systems), dissolved in potassium phosphate buffer) incubated for 60 min at room temperature and the fluorescence signal (Tecan Ultra® fluorescence reader; excitation wavelength: 280 nm; emission wavelength: 465 nm) read at the end of the preincubation period (FLU-1). After the preincubation time, 20 μl of aqueous dansylamide solution (1 mM dansylamide (Sigma-Aldrich), dissolved in hydrochloric acid) were added and the fluorescence signal read every 10 min for a period of 60 min at 37° C. For calculation, the fluorescence data of the time point 60 min (FLU-2) were used. The total volume of assay mixture amounted to 208 μl. […] Each microplate also contained blanks without compound and enzyme, controls without compound and ethoxzolamide (final concentration 5×10^-[…]) as validation standard compound. All data reflect single measurements. Data were expressed as % inhibition after calculation by the formula: [formula] […] Concentration action figures were calculated by applying the Prism algorithm for nonlinear regression (curve-fit): sigmoidal dose response with variable slope and the constraints: top: 100 and bottom 0.

[4] = tested on: embyronal hippocampal neurons; assay: Effect on neurite outgrowth from hippocampal neurons; format: cell-based, rat; settings: for neurite mean length (% of control): 3 days exposure, two cultures normalized
Description: Neurite outgrowth is an important parameter to evaluate the neurotrophic potency of a compound. […] The hippocampal neurons from pregnant Wistar female rats were dissociated by trypsinization for 30 min at 37° C. (trypsin-EDTA, Gibco) in presence of DNAse I (Roche, Meylan). The reaction was stopped by addition of medium of Eagle modified by Dulbecco (DMEM; Gibco) with 10% of fetal bovine serum (Gibco). The suspension was triturated with a 10-ml pipette and using a 21G needle syringe and centrifuged at 350×g for 10 min at room temperature. The resulting pellet was re-suspended in culture medium containing Neurobasal medium (Gibco) with 2% of B27 supplement (Gibco) and 2 mM of glutamine (Gibco). Viable cells were counted in a Neubauer cytometer using the trypan blue exclusion test (Sigma) and seeded on the basis of 30 000 cells per Petri dish (Nunc) precoated with poly-L-lysine (Sigma). Cells were allowed to adhere 2 h and maintained in a humidified incubator at 37° C. in 5% CO2-95% air atmosphere.
After adhesion, vehicle and test compound at different concentrations (1 μM, 3 μM, 10 μM and 30 μM) were added to the medium. BDNF (50 ng/ml, 3.7 nM) was included as positive control for neurite growth. The test compound was tested in two independent cultures in parallel with control and BNDF cultures.
After the 3 days exposure of the neurons to the test compounds, cultures were washed in phosphate-buffered saline (PBS, Gibco) and fixed using 2.5% glutaraldehyde in PBS. Several pictures (˜80) of cells with neurites without any branching were taken per condition using a digital camera (Coolpix 995; Nikon) fixed on the microscope (Nikon, objective 40×). Neurites were outlined on computer screen using imaging software (Image-Pro Plus, France), which automatically calculates the length.

[5] = tested on: STZ-diabetic male Sprague Dawley rats; assay: Diabetic-induced neuropathic pain: cold bath test (cold allodynia) in STZ rats; format: in vivo, rat; settings: day 10
[6] = molecular target: T2, human carbonic anhydrase II from erythrocytes (Homo sapiens, UniProt P00918); assay: In vitro inhibition of human carbonic anhydrase II (dansylamide fluorescence); format: biochemical
T2 construct: human carbonic anhydrase II from erythrocytes (Sigma Aldrich); purchased Sigma Aldrich; host or cells: human erythrocytes
Description: as §1

[7] = tested on: mouse; settings: for number of deaths after ECS: 20 mice per group, vehicle 1; for ECS intensity administered, mean ± s.e.m.: vehicle 36.5 ± 1.0
Description: The method, which detects pro-convulsant or anti-convulsant activity, follows that described by Swinyard et al. (J. Pharmacol. Exp. Ther. 1952, 106, 319-330). Mice were administered ECS (rectangular current, 0.4 s, 50 Hz) via corneal electrodes connected to a constant current shock generator (Ugo Basile: Type 7801).
A group wherein the vehicle is administered orally 60 minutes before the ECS serves a control. Diazepam (8 mg/kg p.o.), administered under the same experimental conditions, served as a positive anti-convulsive reference substance.
If there were also no convulsions in animal no 2, then the current was further increase in the following animals (increases of 10 mA) until the first tonic convulsion was observed. Once the first tonic convulsion was observed, the intensity of ECS was decreased by 5 mA for the next animal and then the intensity was decreased or increased by 5 mA from animal to animal depending on whether or the previous animal convulsed or not. The minimum intensity given was 25 mA and the maximum intensity given was 95 mA. The electroconvulsive shock threshold was determined as the mean current administered in the last 20 mice.
The number of deaths is also recorded approximately 30 minutes after the animal has been tested for convulsions. The test was performed blind. A positive percent change indicates an anticonvulsant effect. A negative percent change indicates a proconvulsant effect.
Quantitative data were analyzed by comparing treated groups with vehicle control using unpaired Student's t tests. Quantal data were analyzed by comparing treated groups with vehicle control using Fisher's Exact Probability tests.

[8] = molecular target: T3, recombinant human carbonic anhydrase isoenzyme VB (Homo sapiens, UniProt Q9Y2D0); assay: In vitro inhibition of human carbonic anhydrase isoenzyme VB (dansylamide fluorescence); format: biochemical; settings: final compound concentration 10 μM
T3 construct: purchased R&D Systems
T3 sequence (Q9Y2D0 34-317): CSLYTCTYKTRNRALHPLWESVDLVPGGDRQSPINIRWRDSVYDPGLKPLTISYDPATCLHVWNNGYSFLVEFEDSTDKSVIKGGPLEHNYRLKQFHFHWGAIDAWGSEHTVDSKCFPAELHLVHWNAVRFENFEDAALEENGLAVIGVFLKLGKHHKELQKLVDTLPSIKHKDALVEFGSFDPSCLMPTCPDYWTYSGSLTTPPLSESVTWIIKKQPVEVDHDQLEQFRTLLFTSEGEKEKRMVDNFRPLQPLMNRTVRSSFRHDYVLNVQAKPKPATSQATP
Description: as §1

[9] = tested on: embyronal hippocampal neurons; assay: Effect on neurite outgrowth from hippocampal neurons; format: cell-based, rat; settings: BDNF 1.85 nM (positive control), 3 days exposure
[10] = final compound concentration 0.1 μM
[11] = final compound concentration 1 μM

CC1(C)[C@H]2CC[C@H](COS(N)(=O)=O)[C@@H]1C2 [Compound 1, [(1S,2S,5S)-6,6-dimethylbicyclo[3.1.1]hept-2-yl]methyl-sulfamate]
% inhibition (compared to STZ/vehicle group), warm plate test ([1]; 10 mg/kg p.o. 1 h before test): 53%
% inhibition (compared to STZ/vehicle group), warm plate test ([1]; 30 mg/kg p.o. 1 h before test): 59* %
% inhibition (compared to STZ/vehicle group), warm plate test ([1]; 50 mg/kg p.o. 1 h before test): 64* %
food intake [% of control] [2]: 69.4% (day 3) % of control
inhibition at 0.1 µM [3, 10]: 85%
neurite mean length (% of control) ([4]; 1 μM): 110.9 % of control
neurite mean length (% of control) ([4]; 3 μM): 108.9 % of control
neurite mean length (% of control) ([4]; 10 μM): 113.2 % of control
neurite mean length (% of control) ([4]; 30 μM): 114.5 % of control
% inhibition (compared to STZ/vehicle group), cold bath test ([5]; 10 mg/kg p.o. 1 h before test): 62* %
% inhibition (compared to STZ/vehicle group), cold bath test ([5]; 30 mg/kg p.o. 1 h before test): 58* %
% inhibition (compared to STZ/vehicle group), cold bath test ([5]; 50 mg/kg p.o. 1 h before test): 72* %
inhibition at 0.1 µM [6, 10]: 56%
number of deaths after ECS ([7]; 10 mg/kg p.o. −60 min): 2
ECS intensity administered, mean ± s.e.m. ([7]; 10 mg/kg p.o. −60 min): 40.0 ± 1.2 mA
number of deaths after ECS ([7]; 30 mg/kg p.o. −60 min): 0
ECS intensity administered, mean ± s.e.m. ([7]; 30 mg/kg p.o. −60 min): 43.5 ± 1.5 mA
number of deaths after ECS ([7]; 100 mg/kg p.o. −60 min): 1
ECS intensity administered, mean ± s.e.m. ([7]; 100 mg/kg p.o. −60 min): 88.0 ± 2.1 mA
inhibition at 10 µM [8]: 70%

CC1(C)[C@@H]2CC[C@@H](COS(N)(=O)=O)[C@H]1C2 [Compound 2, [(1R,2R,5R)-6,6-dimethylbicyclo[3.1.1]hept-2-yl]methyl-sulfamate]
inhibition at 0.1 µM [3, 10]: 70%
inhibition at 0.1 µM [6, 10]: 33%
inhibition at 10 µM [8]: 75%

CC1(C)[C@H]2CC[C@@H](CCOS(N)(=O)=O)[C@@H]1C2 [Compound 3, [(1S,2S,5S)-6,6-dimethylbicyclo[3.1.1]hept-2-yl]ethyl-sulfamate]
% Inhibition [3, 10]: 28%
% Inhibition [6, 10]: 15%
% Inhibition [8]: 55%

CC1(C)[C@H]2CC[C@@H](COS(N)(=O)=O)[C@@H]1C2 [Compound 4, [(1S,2R,5S)-6,6-dimethylbicyclo[3.1.1]hept-2-yl]methylsulfamate]
% Inhibition [3, 11]: 80%
% Inhibition [6, 11]: 72%
% Inhibition [8]: 53%

CN1C(=O)CN=C(c2ccccc2)c2cc(Cl)ccc21 [Diazepam, reference compound]
ECS intensity % change from control ([7]; 8 mg/kg p.o. −60 min): +124%
number of deaths after ECS ([7]; 8 mg/kg p.o. −60 min): 0
ECS intensity administered, mean ± s.e.m. ([7]; 8 mg/kg p.o. −60 min): 81.8 ± 3.0 mA

(1R,4S)-bicyclo[2.2.1]hept-2-yl-methylsulfamate [Compound 5]
% Inhibition [3, 11]: 91%
% Inhibition [6, 11]: 77%
% Inhibition [8]: 41%

(4S)-bicyclo[2.2.1]hept-5-en-2-ylmethylsulfamate [Compound 6]
% Inhibition [3, 11]: 94%
% Inhibition [6, 11]: 76%
% Inhibition [8]: 40%

B1: BDNF: BDNF (50 ng/ml, 3.7 nM) was included as positive control for neurite growth (protein, UniProt P23560 19-247, looked up)
Neurotrophic factor BDNF …: APMKEANIRGQGGLAYPGVRTHGTLESVNGPKAGSRGLTSLADTFEHVIEELLDEDQKVRPNEENNKDADLYTSRVMLSSQVPLEPPLLFLLEEYKNYLDAANMSMRVRRHSDPARRGELSVCDSISEWVTAADKKTAVDMSGGTVTVLEKVPVSKGQLKQYFYETKCNPMGYTKEGCRGIDKRHWNSQCRTTQSYVRALTMDSKKRIGWRFIRIDTSCVCTLTIKRGR
neurite mean length (% of control) [9]: 116.4 % of control
increase in neurite length normalized by mean control neurite length ([4]; 50 ng/ml BDNF, both cultures normalized): 16.4%
mean increase in neurite length ([4]; 50 ng/ml BDNF, first culture): 24.5 μm
neurite length (mean±SEM) ([4]; 50 ng/ml BDNF, first culture, n=79 (control 105.7±3.2)): 131.6±3.1 μm
mean increase in neurite length ([4]; 50 ng/ml BDNF, second culture): 8.6 μm
neurite length (mean±SEM) ([4]; 50 ng/ml BDNF, second culture, n=82 (control 109.3±3.1)): 118.7±2.8 μm
